Experimental data reported in ChEMBL document CHEMBL1128268, “Tryptophan-derived NK1 antagonists: conformationally constrained heterocyclic bioisosteres of the ester linkage” (J Med Chem, 1995).

Target: Substance-P receptor (Homo sapiens, UniProt P25103)
Experiment: Binding affinity at human Tachykinin receptor 1 expressed in CHO cells by [125 I]Trp8-substance P displacement.
Type: cell-based

Substance-P receptor, sequence (P25103 whole entry): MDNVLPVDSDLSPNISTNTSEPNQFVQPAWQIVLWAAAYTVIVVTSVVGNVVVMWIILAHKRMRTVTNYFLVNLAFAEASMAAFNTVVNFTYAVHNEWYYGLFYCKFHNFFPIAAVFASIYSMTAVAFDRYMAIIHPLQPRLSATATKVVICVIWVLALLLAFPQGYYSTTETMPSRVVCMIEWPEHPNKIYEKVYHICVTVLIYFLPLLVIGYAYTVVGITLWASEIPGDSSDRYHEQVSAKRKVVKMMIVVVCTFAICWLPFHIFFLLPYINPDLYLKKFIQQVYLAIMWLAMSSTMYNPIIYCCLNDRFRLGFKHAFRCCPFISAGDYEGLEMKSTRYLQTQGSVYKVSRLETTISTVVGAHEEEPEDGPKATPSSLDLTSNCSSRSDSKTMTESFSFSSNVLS

Row | SMILES | IC50 [nM]
1 | O=C1NC(Cc2c[nH]c3ccccc23)CN1Cc1cc(C(F)(F)F)cc(C(F)(F)F)c1 (centres undefined) | 267
2 | C=CCC1(Cc2c[nH]c3ccccc23)OC(=O)N(Cc2cc(C(F)(F)F)cc(C(F)(F)F)c2)C1=O (centres undefined) | 31
3 | CC1(Cc2c[nH]c3ccccc23)OC(=O)N(Cc2cc(C(F)(F)F)cc(C(F)(F)F)c2)C1=O (centres undefined) | 11
4 | CN1C(=O)N(Cc2cc(C(F)(F)F)cc(C(F)(F)F)c2)C(=O)C1Cc1c[nH]c2ccccc12 (centres undefined) | 153
5 | Cc1cc(C)cc(CN2C(=O)OC(Cc3c[nH]c4ccccc34)C2=O)c1 (centres undefined) | 683
6 | O=C1CNC(Cc2c[nH]c3ccccc23)CN1Cc1cc(C(F)(F)F)cc(C(F)(F)F)c1 (centres undefined) | 243
7 | FC(F)(F)c1cc(CN2CCNC(Cc3c[nH]c4ccccc34)C2)cc(C(F)(F)F)c1 (centres undefined) | 567
8 | O=C1OC(Cc2c[nH]c3ccccc23)C(=O)N1Cc1cc(Cl)cc(Cl)c1 (centres undefined) | 273
9 | O=C1C(Cc2c[nH]c3ccccc23)N(C(=O)Nc2ccccc2)C(=O)N1Cc1cc(C(F)(F)F)cc(C(F)(F)F)c1 (centres undefined) | 220
10 | COc1cc(CN2C(=O)OC(Cc3c[nH]c4ccccc34)C2=O)cc(OC)c1 (centres undefined) | 7370
11 | O=C1OC(Cc2c[nH]c3ccccc23)C(=O)N1Cc1cccc(C(F)(F)F)c1 (centres undefined) | 2670
12 | O=C1NC(Cc2c[nH]c3ccccc23)CN(Cc2cc(C(F)(F)F)cc(C(F)(F)F)c2)C1=O (centres undefined) | 400
13 | O=C1NC(Cc2c[nH]c3ccccc23)C(=O)N1Cc1cc(C(F)(F)F)cc(C(F)(F)F)c1 (centres undefined) | 317
14 | O=C1CC(Cc2c[nH]c3ccccc23)C(=O)N1Cc1cc(C(F)(F)F)cc(C(F)(F)F)c1 (centres undefined) | 203
15 | CNC(=O)N1C(=O)N(Cc2cc(C(F)(F)F)cc(C(F)(F)F)c2)C(=O)C1Cc1c[nH]c2ccccc12 (centres undefined) | 63
16 | O=C1C(Cc2c[nH]c3ccccc23)N(Cc2ccccc2)C(=O)N1Cc1cc(C(F)(F)F)cc(C(F)(F)F)c1 (centres undefined) | 310
17 | O=C1OC(Cc2c[nH]c3ccccc23)C(=O)N1Cc1cc(F)cc(F)c1 (centres undefined) | 4280
18 | O=C1OC(Cc2c[nH]c3ccccc23)C(=O)N1Cc1cc(C(F)(F)F)cc(C(F)(F)F)c1 (racemic) | 22
19 | O=C1OC(Cc2c[nH]c3ccccc23)C(=O)N1Cc1cc(C(F)(F)F)cc(C(F)(F)F)c1 (single isomer, unassigned; (-)) | 26
